Test results reported in patent US10472341B2, “Bicyclic tetrahydrothiazepine derivatives useful for the treatment of neoplastic and/or infectious diseases” (APEIRON BIOLOGICS AG, priority 2015, dated 2019).
Counter-ions that a name gives are not always drawn.

Experiments:
human CD19+ B-cells = assay: Cytokine production in IgM-stimulated isolated human CD19+ B-cells; assay type: cell-based; conditions: for EC50: Homo sapiens, B-cell
Method: Buffy coats were obtained from a local hospital, diluted 3 fold with PBS and layered onto an isotonic Ficoll separating solution d=1.077 g/mL in 50 mL centrifuge tubes. The tubes were centrifuged at 914 g for 25 min at room temperature with the brakes off. The PBMC layer was removed and washed twice with ice-cold PBS. Erythrocytes were lysed by addition of ddH2O and cells were resuspended in X-Vivo15 (Lonza). CD19+ B cells were isolated from PBMCs by negative selection with the aid MACs kits (Miltenyi), according to manufacturer's instructions. Purified fractions were >95% CD19-positive as judged by antibody staining and assessment by cytometry. B-cells were stimulated by adding varying concentrations of human IgM (1.25-20 μg/mL goat F (ab′) 2 anti human IgM-LE/AF, Biozol) in the presence of example 1. Cells were incubated for 18 h at 37° C., 5% CO2. Assay plates were centrifuged at 400 g for 5 min and supernatants harvested. Cytokine concentration in tissue culture supernatants were determined with MSD or HTRF kits (MSD and Cisbio), according to manufacturer's instructions.

OT-II cells [1] = assay: OT-II transfer model, oral administration: antigen-specific T cell proliferation and CD69; assay type: in vivo, mouse; conditions: mice
Method: (§1) • Single cell suspension of splenocytes was prepared from the spleen by rinsing cells through a sterile 70 μm filter with PBS • Cells were collected by centrifugation in an 15 ml tube, the cell pellet was resuspended in 1 ml of Erylyse buffer and incubated at room temperature for 5 minutes, tubes were filled up with PBS and cells were washed twice • Cells were counted and resuspended in the desired buffer volume for MACS-enrichment or flow cytometric analysis Isolation of CD4 T Cells from OT-II Transgenic Mice • Splenocytes were resuspended in MACS buffer ([…] MACS-buffer/10^7 cells) • CD4 T cells were isolated using the CD4 T cell isolation kit (Miltenyi) with LS-columns following manufacturer's recommendations CFSE-Labeling of T Cells • Cells were resuspended in PBS with 0.1% BSA at 1×10^7 cells/ml and CFSE-solution was added to final concentration of 2.5 μM CFSE • Incubated for 10 min at 37° C., swung each 2 min • Same volume of FCS added and incubated for 5 min at room temperature • Cells were washed twice with RMPI-10% FCS medium • Cells were counted and resuspended in PBS or medium at desired concentration OT-II Transfer • Day 0: OT-II cells were transferred in PBS (3*10^6. Cells in 100 μl PBS) by retro-orbital injection • Day 1: WT mice got OVA vaccinated (subcut. flank, 10 μg LPS, 2 μg OVA per animal) • 2 & 4 h later compounds were administrated; for oral dosing compound was used as suspension (0.5% methylcellulose in water), for i.v. dosing compound was solubilized in DMSO and diluted with PBS • Day 2: compounds were administrated twice in the morning (with 2 h time interval) • Day 3: Mice were sacrificed & splenocytes were isolated • T cell proliferation & phenotype was determined by flow cytometry • Flow cytometry-Staining (all Abs purchased from eBioscience and used as recommended by the manufacturer): B220-eF450, CD4-PE, CD25PerCPCy5.5, CD69-PC7, TCRVa2-APC, CD8-AF700, CD3-eF780; CFSE; 7-AAD • Acquisition on Beckman-Coulter Gallios, Analysis using Kaluza Software OT-I Transfer to Mice with B16-F10-OVA Tumors • Day 0: 100000 B16-F10-OVA tumor cells were inoculated subcutaneously at the flank of WT-mice • Day 7: OT-I cells were transferred in PBS (3*10^6. […]

OT-II cells [2] = assay: OT-II transfer model, intravenous administration; assay type: in vivo, mouse; conditions: LPS & OVA
Method: as §1

| EC50 (human CD19+ B-cells; IL-6, IgM 1.25 μg/mL) | EC50 (human CD19+ B-cells; IL-6, IgM 5 μg/mL) | EC50 (human CD19+ B-cells; IL-6, IgM 20 μg/mL) | EC50 (human CD19+ B-cells; TNF-α, IgM 1.25 μg/mL) | EC50 (human CD19+ B-cells; TNF-α, IgM 5 μg/mL) | EC50 (human CD19+ B-cells; TNF-α, IgM 20 μg/mL) | Compound | Fold Diff Mean (human CD19+ B-cells; IL-6, IgM 1.25 μg/mL) | Fold Diff Mean (human CD19+ B-cells; IL-6, IgM 5 μg/mL) | Fold Diff Mean (human CD19+ B-cells; IL-6, IgM 20 μg/mL) | Fold Diff Mean (human CD19+ B-cells; TNF-α, IgM 1.25 μg/mL) | Fold Diff Mean (human CD19+ B-cells; TNF-α, IgM 5 μg/mL) | Fold Diff Mean (human CD19+ B-cells; TNF-α, IgM 20 μg/mL) | Proliferated OT-II cells [% gated] average (OT-II cells [1]; LPS & OVA vaccination, 10 mg/kg dosed orally, splenocytes day 3) | CD69 on transferred OT-II cells (OT-II cells [1]; LPS & OVA, 10 mg/kg orally) | Proliferation of OT-II cells (OT-II cells [1]; LPS & OVA, 10 mg/kg orally, versus no compound) | Proliferated OT-II cells, average (OT-II cells [2]; 1 mg/kg) | CD69+ cells, B cells of recipient animal (OT-II cells [2]; 10 mg/kg) | CD69+ cells, CD8 T cells of recipient animal (OT-II cells [2]; 10 mg/kg) | CD69+ cells, WT CD4 T cells of recipient animal (OT-II cells [2]; 10 mg/kg) | CD69+ cells, transferred OT-II cells (OT-II cells [2]; 10 mg/kg) |
| --- | --- | --- | --- | --- | --- | --- | --- | --- | --- | --- | --- | --- | --- | --- | --- | --- | --- | --- | --- | --- |
| 2.45 µM | 4.68 µM | 3.24 µM | 3.31 µM | 4.47 µM | 2.95 µM | N[C@H]1CS(=O)(=O)c2cc(F)c(C(=O)NC3CC3(F)F)cc2N(Cc2ccc(Cl)cc2)C1=O (stereo partly drawn) [Example 1, (3R)-3-amino-5-[(4-chlorophenyl)methyl]-N-(2,2-difluorocyclopropyl)-8-fluoro-1,1,4-trioxo-2,3,4,5-tetrahydro-1λ^6,5-benzothiazepine-7-carboxamide hydrochloride] | 1.61 | 1.92 | 1.92 | 1.64 | 2.08 | 1.87 | 29.03 % gated | CD69 was not further upregulated | highly significantly (p<0.00001) enhanced |  |  |  |  |  |
|  |  |  |  |  |  | Cl.N[C@H]1CS(=O)(=O)c2cc(F)c(C(=O)NCCCC(F)(F)F)cc2N(Cc2ccc(Cl)cc2)C1=O [Example 70, (3R)-3-amino-5-[(4-chlorophenyl)methyl]-8-fluoro-1,1,4-trioxo-N-(4,4,4-trifluoro-butyl)-2,3,4,5-tetrahydro-1λ^6,5-benzothiazepine-7-carboxamide hydrochloride] |  |  |  |  |  |  |  |  |  | 18.70 % gated | 8.62 % gated | 7.08 % gated | 12.26 % gated | 59.47 % gated |
